According to patent publication US5075318A, “8α-acylaminoergoline, its preparation and pharmaceutical compositions containing it” (Sandoz Ltd., priority 1987, dated 1991):
Read-outs that look alike come from different tables or passages of the source.

Legend:
[1] = system: apomorphine induced gnawing; assay: Inhibition of apomorphine induced gnawing in the rat; format: in vivo, rat (Sprague-Dawley); conditions: po, apomorphine hydrochloride 2.0 mg/kg i.v., read-out: threshold dose (100% inhibition of apomorphine induced gnawing)
Method: The compound of formula I inhibits apomorphine induced gnawing in the rat in a method based on that of P.A. Janssen et al., Arzneim.-Forsch. (Drug Res.) 10, 1003-1005 (1960):
Groups of 3-6 rats (males and females, 90-160 g, Sprague-Dawley, Suddeutsche Tierfarm, Tuttlingen, West Germany) are treated with the test-drug orally and after a pre-determined time further treated with 2.0 mg/kg i.v. apomorphine hydrochloride in aq. solution. They are then placed in individual cages lined with corrugated paper. At times 10, 20 and 30 minutes after the apomorphine each rat is observed for 1 minute. If gnawing occurred during an observation period, that observation is scored as positive. Thus, three scores are obtained from each rat. The supra-maximal dose of apomorphine invariably produces gnawing in all controls at all observation times. Out of the total number of observations per treatment group, the number of positives is noted. The dose of drug which causes a 100% inhibition of the apomorphine induced gnawing is taken as the threshold dose. After a pretreatment time of 3 hours the threshold dose for the compound of formula I is 0.2 mg/kg p.o., after a pretreatment time of 6 hours also 0.2 mg/kg p.o.

Tolerability in mice = conditions: mouse, in vivo, po, well tolerated up to, read-out: well tolerated dose
Method: (§1) The compound of formula I is well tolerated in mice up to 100 mg/kg p.o. The non-toxic dose level in the dog after a 4 week treatment is 3 mg/kg/day p.o.

[2] = Non-toxic dose level in the dog after 4 week treatment; conditions: in vivo, po, after a 4 week treatment
Method: as §1

D-2 receptor sites = biological target: T1, D-2 receptor sites (Bos taurus, UniProt P20288); assay: D-2 receptor binding, 3H-spiperone binding assay in calf striatal membranes
T1 construct: Calf striatal membranes are prepared as described above; from tissue; host or cells: calf brain striatum, membrane homogenate
Method: (§2) Furthermore the compound of formula I binds to dopamine receptors as characterised by the displacement of ^3 H-ligands from their respective binding sites in the homogenates of brain tissue.
(§3) Fresh calf brain striatal tissue is homogenized in a 20 fold volume of Tris-HCl buffer (50 mM, pH 7.4 at 25° C.) using a Polytron tissue homogenizer. The homogenate is centrifuged for 10 minutes at 50,000 g (4° C.) and the supernatant discarded. The pellets are resuspended in the same buffer as before. The suspension is incubated for 20 minutes at 37° C. and then recentrifuged as before. The resulting pellets are stored frozen at -20° until their use in the binding assay. For the binding assay the pellets are resuspended in Tris-HCl buffer (50 mM, pH 7.4 at 37° C., containing 120 mM NaCl) in such a way that the final volume of 2 ml contains membranes corresponding to approximately 5 mg original tissue weight. ^3 H-SCH 23390 is added to give a final concentration of 0.1 nM. The assays for the determination of nonspecific binding additionally contain 1 μM unlabelled SCH 23390. The test compound is added to give 5 to 9 different concentrations. […] The filters are monitored for radioactivity through liquid scintillation counting. […]
The high affinity of the compound for D-2 receptor sites may be determined in the ^3 H-spiperone binding assay [cf. […]

[3] = system: rats with an unilateral 6-OHDA (6-hydroxydopamine) induced lesion of the substantia nigra; assay: Rotational behaviour in rats with unilateral 6-OHDA induced lesion of the substantia nigra (Ungerstedt rat); format: in vivo
From the text: For instance, the compound of formula I induces in rats with an unilateral 6-OHDA (6-hydroxydopamine) induced lesion of the substantia nigra [i.e. Ungerstedt rat, c.f.

D-1 receptor sites = biological target: T2, D-1 receptor sites (Bos taurus, UniProt Q95136); assay: D-1 receptor binding, displacement of 3H-SCH 23390 in calf striatal membranes
T2 construct: Fresh calf brain striatal tissue is homogenized; from tissue; host or cells: calf brain striatum, membrane homogenate
Method: as §2
The affinity to D-1 receptor sites [cf. W. Billard et al., Life Sci. 35, 1885-1893 (1984)] using ^3 H-(R)-(+)-8-chloro-7-hydroxy-3-methyl-5-phenyl-2,3,4,5-tetrahydro-1H-3-benzazepine (^3 H-SCH 23390) as ligand is determined as follows:
as §3, with “23390.” for “23390. The test compound is added to give 5 to 9 different concentrations.”

[4] = Cataleptogenic activity in rats; format: in vivo, rat (Sprague-Dawley); conditions: rat, in vivo, po, read-out: ratio of catalepsy threshold dose to dose required to antagonize apomorphine induced gnawing
Method: (§4) (Drug Res.) 21, 252-255 (1971). In this test groups of 4-8 rats (120-170 g, Sprague-Dawley, females and males, Suddeutsche Tierfarm, Tuttlingen, West Germany) receive the test substance orally. At specified times after treatment the catalepsy of each rat is estimated by placing the forepaws on a 7 cm high block. The time for which the animal remains in this unnatural position is measured up to a maximum of 45 seconds. The threshold dose is the final dose, which still causes a catalepsy-median of >10 seconds. The compound of formula I has a threshold dose of 5 mg/kg p.o. determined during an 8 hour measurement period. This is a dose which is at least 25 times higher than that required to antagonize apomorphine induced gnawing.

catalepsy = assay: Cataleptogenic activity in rats; format: in vivo, rat (Sprague-Dawley); conditions: p.o.
Method: as §4

serum prolactin levels [5] = system: serum prolactin levels; set-up: species or system rat (male Sprague-Dawley); conditions: rat, in vivo
Method: The test is performed as follows:
Male rats (120-140 g, Sprague-Dawley, Suddeutsche Tierfarm, Tuttlingen, West Germany) are maintained on a 12:12 light dark cycle (lights on 06.00, off 18.00 hrs). On the evening before the experiment, animals are marked for identification purposes and caged in groups of 4 into makrolon (type 3) cages. The next morning, the rats in each group receive 10 mg/kg p.o. of the test drug or placebo (normal saline solution+2 drops HCl) 2, 4, 8, 16 or 24 hours before they are killed by decapitation. Blood samples are collected in plastic tubes, centrifuged to obtain the serum, which is then stored at -20° C. until assayed for prolactin. Prolactin in the serum is measured by radioimmunoassay according to that of A. Hausler et al., J. Ultrastruct. Res. 64, 74 (1978).

serum prolactin levels [6] = assay: Serum prolactin levels in male rats after subcutaneous administration (radioimmunoassay); format: in vivo, rat (male OFA); conditions: s.c., only at high doses
Method: E. Fluckiger et al., Experientia 34, 1330-1331 (1978)]:
Male OFA-rats of about 250 g body weight are brought to the experimental room 24 hours before the actual experiment. They are kept in appropriate cages by tens. After the experimental treatment they are kept singly. Food and water are freely available. Various doses of the compound or the vehicle are administered s.c. to groups of 5 animals. In this standard experiment the animals are decapitated 4 hours after treatment. The sera of the individual animals are deep frozen until assayed. Prolactin is then measured in aliquots by radioimmunoassay. The serum prolactin levels are expressed in ng/ml in terms of the prolactin standard NIAMD-RPrl-RP1.

T2 sequence (Q95136 whole entry): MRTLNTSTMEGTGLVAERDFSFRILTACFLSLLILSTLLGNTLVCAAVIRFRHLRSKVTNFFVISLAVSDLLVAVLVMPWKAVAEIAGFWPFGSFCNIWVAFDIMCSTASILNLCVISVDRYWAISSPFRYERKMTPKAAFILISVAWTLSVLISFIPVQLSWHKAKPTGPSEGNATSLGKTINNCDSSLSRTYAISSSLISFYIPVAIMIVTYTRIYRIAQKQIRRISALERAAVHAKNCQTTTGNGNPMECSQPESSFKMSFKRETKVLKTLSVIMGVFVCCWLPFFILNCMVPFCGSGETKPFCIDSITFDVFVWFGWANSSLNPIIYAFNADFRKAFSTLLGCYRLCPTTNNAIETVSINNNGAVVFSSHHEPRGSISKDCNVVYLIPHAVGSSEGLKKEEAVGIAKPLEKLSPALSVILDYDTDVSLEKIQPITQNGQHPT
T1 sequence (P20288 whole entry): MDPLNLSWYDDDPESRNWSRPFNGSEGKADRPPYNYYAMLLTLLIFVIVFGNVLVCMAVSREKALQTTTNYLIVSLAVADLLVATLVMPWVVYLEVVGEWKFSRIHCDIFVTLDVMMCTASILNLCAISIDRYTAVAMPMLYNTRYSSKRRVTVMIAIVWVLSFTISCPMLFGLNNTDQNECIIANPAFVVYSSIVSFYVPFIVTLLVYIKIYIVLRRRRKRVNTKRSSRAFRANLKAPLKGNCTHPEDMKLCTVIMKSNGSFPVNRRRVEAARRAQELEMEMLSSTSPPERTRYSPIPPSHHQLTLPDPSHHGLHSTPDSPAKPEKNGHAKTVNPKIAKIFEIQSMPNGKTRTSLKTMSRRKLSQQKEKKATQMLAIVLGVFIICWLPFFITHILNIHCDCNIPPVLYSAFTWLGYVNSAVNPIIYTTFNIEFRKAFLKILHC

Structure (SMILES)	ED100 ([1]; pretreatment time 3 hours) [mg/kg]	ED100 ([1]; pretreatment time 6 hours) [mg/kg]	MTD (Tolerability in mice) [mg/kg]	NOAEL at 672 h [2] [mg/kg/day]	IC50 (D-2 receptor sites) [nM]	rotations contralateral to the lesion ([3]; 0.5 mg/kg p.o., within 7 hours) [rotations]	rotational behaviour (in words) ([3]; rats, relatively low doses, p.o.)	IC50 (D-1 receptor sites) [nM]	selectivity ratio [4]	cataleptogenic activity (in words) (catalepsy)	threshold dose (catalepsy-median of >10 seconds) (catalepsy; 8 hour measurement period) [mg/kg p.o.]	effect on prolactin levels, oral administration (overall) (serum prolactin levels [5])	effect on serum prolactin levels (serum prolactin levels [5]; po, 10 mg/kg)	dose that influences serum prolactin levels (serum prolactin levels [6]) [mg/kg]
CCC(C)(CC)C(=O)N[C@H]1C[C@@H]2c3cccc4[nH]c(C)c(c34)C[C@H]2N(C)C1 [compound of formula I, N-[(5R,8S,10R)-2,6-dimethyl-ergoline-8-yl]-2-ethyl-2-methyl-butanamide]	0.2	0.2	≥ 100	3	~20	950	long lasting rotational behaviour contralateral to the lesion	~50	≥ 25	only a weak cataleptogenic activity	5	only weak effects on prolactin levels	declines (24 hours) towards normal	≥ 10
O=C(CCCN1CCC(O)(c2ccc(Cl)cc2)CC1)c1ccc(F)cc1 [haloperidol, reference compound]		0.2												
